US20100222421A1, “Usage of Baicalein in the Preparation of a Pharmaceutical Composition for the Treatment of Traumatic Brain Injury” (National Defense Medical Center, priority 2009, published 2010)

Legend:
[1] = tested on: rats with controlled cortical impact (CCI) injury; assay: Tactile adhesive-removal somatosensory test after CCI injury; format: in vivo, rat; conditions: P<0.05; for adhesive-removal times versus vehicle-treated rats: days 1, 4 and 7
Procedure: A previously described CCI injury procedure was utilized (Chen et al., 2003). Male Sprague-Dawley rats, which have body weight of 250-300 g, were anaesthetized with sodium pentobarbital (i.p.; 50 mgkg^−1; Rhone Merieux, Harlow, UK) and placed in a stereotaxic frame. A 5-mm craniotomy was performed over the left parietal cortex, centered on the coronal suture and 3 mm lateral to the sagittal suture. Considerable care was taken to avoid injury to the underlying dura. Injury was made using a pneumatic piston with a rounded metal tip (2.5 mm diameter) that was angled 22.5° C. to the vertical so that the tip was perpendicular with the brain surface at the centre of the craniotomy. A velocity of 4 ms^−1 and a deformation depth 2 mm below the dura were used. The bone flap was immediately replaced and sealed, and the scalp was closed with sutures. Body temperature was monitored throughout the surgery by a rectal probe; temperature was maintained at 37.0±0.5° C. using a heated pad. Rats were placed in a heated cage to maintain body temperature, while recovering from anaesthesia. Baicalein (30 mg kg^−1) dissolved in 10% dimethyl sulphoxide (0.25-0.3 mL) or a corresponding volume of vehicle (10% dimethyl sulphoxide) was administered i.p. immediately following injury or daily for 4 days (immediately, 25, 49 and 73 h) after injury. Behaviour testing using the rotarod, tactile adhesive removal, mNSS and beam walk tests was performed at 28 hours as well as 4, 7, 14, 21 and 28 days post-injury. At 14 and 28 days, the animals were killed, perfused intravascularly and their brains were processed with cresyl violet staining to assess contusion volume (n=8 for each group). […] Behaviour testing was performed before CCI and at […] after CCI by an observer who was unaware of the experimental treatments. […] The time required for each rat to remove adhesive from the forelimb was recorded for five trials per day. […] One hour before CCI, mean latency (in seconds) over five trials to remove the contralateral (right) adhesive was recorded as the pre-injury baseline value.

IL-1β protein = assay: ELISA, IL-1β protein after CCI injury; format: in vivo, rat; conditions: single-dose 30 mg kg^-1 i.p.; ipsilateral cortex, 1 day post-injury; P<0.01
Procedure: A previously described CCI injury procedure was utilized (Chen et al., 2003). Male Sprague-Dawley rats, which have body weight of 250-300 g, were anaesthetized with sodium pentobarbital (i.p.; 50 mgkg^−1; Rhone Merieux, Harlow, UK) and placed in a stereotaxic frame. A 5-mm craniotomy was performed over the left parietal cortex, centered on the coronal suture and 3 mm lateral to the sagittal suture. Considerable care was taken to avoid injury to the underlying dura. Injury was made using a pneumatic piston with a rounded metal tip (2.5 mm diameter) that was angled 22.5° C. to the vertical so that the tip was perpendicular with the brain surface at the centre of the craniotomy. A velocity of 4 ms^−1 and a deformation depth 2 mm below the dura were used. […] Body temperature was monitored throughout the surgery by a rectal probe; temperature was maintained at 37.0±0.5° C. using a heated pad. […]
Single-dose baicalein (30 mg kg^−1) or a corresponding volume of vehicle was administered i.p. immediately following injury. […] Testing after injury was as follows: (1) real-time quantitative RT-PCR analysis for TNF-α, IL-1β and IL-6 mRNA expression at 6 h post-injury (n=7 for each group); (2) FluoroJade B (FJB) staining, TNF-α, IL-1β and IL-6 immunohistochemistry, as well as ELISA at 24 h post-injury to assess degenerative neurons and to determine cytokine expression (n=7 for each group). […]

SMILES: O=c1cc(-c2ccccc2)oc2cc(O)c(O)c(O)c12 [baicalein]
- adhesive-removal times, multiple doses versus single dose ([1]; 30 mg kg^-1 i.p., only on day 7 after injury): significantly lower
- adhesive-removal times versus vehicle-treated rats ([1]; multiple-dose 30 mg kg^-1 i.p. daily for 4 days): significantly lower
- adhesive-removal times versus vehicle-treated rats ([1]; single-dose 30 mg kg^-1 i.p.): significantly lower
- IL-1β protein concentration, % of concentration in vehicle-treated rats (IL-1β protein): 42%
